# Values quoted from earlier work in US7473804B2, “Polymorphs of atomoxetine hydrochloride” (Teva Pharmaceutical Fine Chemicals s.r.l., priority 2004, dated 2009).
# Conditions: as disclosed in U.S. Pat. No. 4,018,895, EP 0 052 492, EP 0 721 777
compound,measurement,value
"CNCC[C@@H](Oc1ccccc1C)c1ccccc1 [Atomoxetine, (R)(−)-N-methyl-3-(2-methylphenoxy)-3-phenylpropylamine]",effectiveness relative to the (+)-enantiomer,about nine times more effective than the (+)-enantiomer
same,effectiveness relative to the racemic mixture (tomoxetine),about twice as effective as the racemic mixture
